Results reported in patent US9907800B2, “Kinase inhibitors and method of treating cancer” (University Health Network, priority 2010, dated 2018).
Structures can show the parent of a compound that is named as a salt.

Assays:
Aurora B = Aurora B (Homo sapiens (Human), UniProt Q96GD4); assay: Aurora B inhibition assay (Z-Lyte); type: biochemical; conditions: read-out: Aurora B IC50 Ranges
human PLK4 = human PLK4 (Homo sapiens (Human), UniProt O00444); assay: PLK4 inhibition assay (indirect ELISA); type: biochemical; conditions: read-out: PLK4 IC50 Ranges
Sequence of human PLK4 (O00444 1-391): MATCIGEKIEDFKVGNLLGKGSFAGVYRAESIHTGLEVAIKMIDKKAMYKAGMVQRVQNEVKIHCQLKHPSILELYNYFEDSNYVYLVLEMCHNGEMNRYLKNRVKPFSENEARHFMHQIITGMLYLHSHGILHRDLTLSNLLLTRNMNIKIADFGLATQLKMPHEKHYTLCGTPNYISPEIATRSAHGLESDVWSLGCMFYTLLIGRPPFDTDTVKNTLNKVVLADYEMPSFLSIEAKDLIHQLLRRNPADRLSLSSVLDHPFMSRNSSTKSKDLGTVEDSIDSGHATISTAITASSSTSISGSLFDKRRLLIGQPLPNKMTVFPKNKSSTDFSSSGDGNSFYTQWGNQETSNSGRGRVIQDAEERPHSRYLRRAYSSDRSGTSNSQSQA

Sequence of Aurora B (Q96GD4 whole entry): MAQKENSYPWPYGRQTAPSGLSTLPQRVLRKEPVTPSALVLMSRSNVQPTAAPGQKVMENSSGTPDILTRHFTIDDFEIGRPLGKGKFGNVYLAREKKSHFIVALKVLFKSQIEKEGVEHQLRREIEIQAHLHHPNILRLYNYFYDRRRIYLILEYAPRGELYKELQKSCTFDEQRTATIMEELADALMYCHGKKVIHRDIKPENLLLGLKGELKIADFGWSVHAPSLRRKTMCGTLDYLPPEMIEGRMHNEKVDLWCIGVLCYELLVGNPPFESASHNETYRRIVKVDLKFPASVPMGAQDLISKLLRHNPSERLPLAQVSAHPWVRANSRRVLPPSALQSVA

IC50 (Aurora B) [nM]	IC50 (human PLK4) [nM]	SMILES
< 100	< 100	COc1ccc2c(c1)[C@]1(C[C@H]1c1ccc3c(-c4ccc5nccn5c4)n[nH]c3c1)C(=O)N2 [Example A107, (1R,2S)-2-(3-(imidazo[1,2-a]pyridin-6-yl)-1H-indazol-6-yl)-5′-methoxyspiro[cyclopropane-1,3′-indolin]-2′-one 2,2,2-trifluoroacetate]
< 100	< 100	O=C1Nc2ccccc2[C@]12C[C@H]2c1ccc2c(/C=C/c3cc(F)c(CN4CCOCC4)c(F)c3)n[nH]c2c1 [Example A116, (1R,2S)-(E)-2-(3-(3,5-difluoro-4-(morpholinomethyl)styryl)-1H-indazol-6-yl)spiro[cyclopropane-1,3′-indolin]-2′-one 2,2,2-trifluoroacetate]
< 100	< 100	COc1ccc2c(c1)[C@]1(C[C@H]1c1ccc3c(-c4ccc(C5CCN(C)CC5)cc4)n[nH]c3c1)C(=O)N2 [Example A123, (1R,2S)-5′-methoxy-2-(3-(4-(1-methylpiperidin-4-yl)phenyl)-1H-indazol-6-yl)spiro[cyclopropane-1,3′-indolin]-2′-one hydrochloride]
< 100	< 100	CCN(CC)Cc1c(F)cc(/C=C/c2n[nH]c3cc([C@@H]4C[C@@]45C(=O)Nc4ccc(OC)cc45)ccc23)cc1F [Example A146, (1R,2S)-(E)-2-(3-(4-((diethylamino)methyl)-3,5-difluorostyryl)-1H-indazol-6-yl)-5′-methoxyspiro[cyclopropane-1,3′-indolin]-2′-one 2,2,2-trifluoroacetate]
< 100	< 100	COc1ccc2c(c1)[C@]1(C[C@H]1c1ccc3c(/C=C/c4csc(CN5CCOCC5)c4)n[nH]c3c1)C(=O)N2 [Example A183, (1R,2S)-5′-methoxy-2-(3-((E)-2-(5-(morpholinomethyl)thiophen-3-yl)vinyl)-1H-indazol-6-yl)spiro[cyclopropane-1,3′-indolin]-2′-one 2,2,2-trifluoroacetate]
< 100	< 100	CCN1CCN(c2ccc(/C=C/c3n[nH]c4cc([C@@H]5C[C@@]56C(=O)Nc5ccc(OC)cc56)ccc34)cc2)CC1 [Example A187, (1R,2S)-(E)-2-(3-(4-(4-ethylpiperazin-1-yl)styryl)-1H-indazol-6-yl)-5′-methoxyspiro[cyclopropane-1,3′-indolin]-2′-one 2,2,2-trifluoroacetate]
< 100	< 100	COc1ccc2c(c1)[C@]1(C[C@H]1c1ccc3c(/C=C/c4ccc(OCCN5CCOCC5)cc4)n[nH]c3c1)C(=O)N2 [Example A194, (1R,2S)-(E)-5′-methoxy-2-(3-(4-(2-morpholinoethoxy)styryl)-1H-indazol-6-yl)spiro[cyclopropane-1,3′-indolin]-2′-one 2,2,2-trifluoroacetate]
< 100	< 100	COc1ccc2c(c1)[C@]1(C[C@H]1c1ccc3c(/C=C/c4cccnc4)n[nH]c3c1)C(=O)N2 [Example A197, (1R,2S)-5′-methoxy-2-(3-((E)-2-(pyridin-3-yl)vinyl)-1H-indazol-6-yl)spiro[cyclopropane-1,3′-indolin]-2′-one]
< 100	< 100	C[C@@H]1CCC[C@H](C)N1Cc1ccc(/C=C/c2n[nH]c3cc([C@@H]4C[C@@]45C(=O)Nc4ccccc45)ccc23)cc1 [Example A201, (1R,2S)-(E)-2-(3-(4-((cis-2,6-dimethylpiperidin-1-yl)methyl)styryl)-1H-indazol-6-yl)spiro[cyclopropane-1,3′-indolin]-2′-one 2,2,2-trifluoroacetate]

The next lines start with the compound.

SMILES	IC50 (Aurora B) [nM]	IC50 (human PLK4) [nM]
COc1ccc2c(c1)[C@]1(C[C@H]1c1ccc3c(-c4ccc(OCCn5ccnc5)cc4)n[nH]c3c1)C(=O)N2 [Example A108, (1R,2S)-2-(3-(4-(2-(1H-imidazol-1-yl)ethoxy)phenyl)-1H-indazol-6-yl)-5′-methoxyspiro[cyclopropane-1,3′-indolin]-2′-one 2,2,2-trifluoroacetate]	< 100	< 100
CN1CCN(c2ccc(/C=C/c3n[nH]c4cc([C@@H]5C[C@@]56C(=O)N(C)c5ccccc56)ccc34)cn2)CC1 [Example A110, (1R,2S)-1′-methyl-2-(3-((E)-2-(6-(4-methylpiperazin-1-yl)pyridin-3-yl)vinyl)-1H-indazol-6-yl)spiro[cyclopropane-1,3′-indolin]-2′-one bis(2,2,2-trifluoro acetate)]	< 100	< 100
COc1ccc2c(c1)[C@]1(C[C@H]1c1ccc3c(/C=C/c4ccncc4)n[nH]c3c1)C(=O)N2 [Example A111, (1R,2S)-5′-methoxy-2-(3-((E)-2-(pyridin-4-yl)vinyl)-1H-indazol-6-yl)spiro[cyclopropane-1,3′-indolin]-2′-one 2,2,2-trifluoroacetate]	< 100	< 100
COc1ccc2c(c1)[C@]1(C[C@H]1c1ccc3c(-c4ccc(N5CCC(N6CCOCC6)CC5)cc4)n[nH]c3c1)C(=O)N2 [Example A121, (1R,2S)-5′-methoxy-2-(3-(4-(4-morpholinopiperidin-1-yl)phenyl)-1H-indazol-6-yl)spiro[cyclopropane-1,3′-indolin]-2′-one 2,2,2-trifluoroacetate]	< 100	< 100
COc1ccc2c(c1)[C@]1(C[C@H]1c1ccc3c(-c4ccc(N5CC[C@@H](N(C)C)C5)cc4)n[nH]c3c1)C(=O)N2 [Example A127, (1R,2S)-2-(3-(4-((R)-3-(dimethylamino)pyrrolidin-1-yl)phenyl)-1H-indazol-6-yl)-5′-methoxyspiro[cyclopropane-1,3′-indolin]-2′-one 2,2,2-trifluoroacetate]	< 100	< 100
COc1ccc2c(c1)[C@]1(C[C@H]1c1ccc3c(-c4ccc(N5CCN(CCO)CC5)cc4)n[nH]c3c1)C(=O)N2 [Example A191, (1R,2S)-2-(3-(4-(4-(2-hydroxyethyl)piperazin-1-yl)phenyl)-1H-indazol-6-yl)-5′-methoxyspiro[cyclopropane-1,3′-indolin]-2′-one 2,2,2-trifluoroacetate]	< 100	< 100
COc1ccc2c(c1)[C@]1(C[C@H]1c1ccc3c(-c4ccc(N5CCN(C6CCCCC6)CC5)cc4)n[nH]c3c1)C(=O)N2 [Example A193, (1R,2S)-2-(3-(4-(4-cyclohexylpiperazin-1-yl)phenyl)-1H-indazol-6-yl)-5′-methoxyspiro[cyclopropane-1,3′-indolin]-2′-one 2,2,2-trifluoroacetate]	< 100	< 100
COc1ccc2c(c1)[C@]1(C[C@H]1c1ccc3c(/C=C/c4ccc(CN5CCOCC5)c(F)c4)n[nH]c3c1)C(=O)N2 [Example A199, (1R,2S)-(E)-2-(3-(3-fluoro-4-(morpholinomethyl)styryl)-1H-indazol-6-yl)-5′-methoxyspiro[cyclopropane-1,3′-indolin]-2′-one 2,2,2-trifluoroacetate]	< 100	< 100
O=C1Nc2ccccc2[C@]12C[C@H]2c1ccc2c(/C=C/c3ccc(CN4CCOCC4)c(F)c3)n[nH]c2c1 [Example A200, (1R,2S)-(E)-2-(3-(3-fluoro-4-(morpholinomethyl)styryl)-1H-indazol-6-yl)spiro[cyclopropane-1,3′-indolin]-2′-one 2,2,2-trifluoroacetate]	< 100	< 100
